Laboratory results as given in patent US10519138B2, “Modulators of SOCE, compositions, and uses thereof” (Università degli Studi del Piemonte Orientale “Amedeo …, priority 2016, dated 2019).

These compounds were tested on Store Operated Calcium Entry (SOCE) in BV-2 cells (assay: Fluo-4 fluorimetric assay of tBHQ-induced store operated calcium entry in BV-2 cells). Conditions: Mus musculus, 10 μM, SOCE inhibition based on tBHQ-induced calcium influx.
Format: cell-based, mouse
Procedure: (A) BV-2 cells were plated in poly-d-lysine coated 24-well plate and incubated overnight. After 24 hours, cells were loaded with 2 μM Fluo-4 and placed in an extracellular solution containing 0 mM Ca^2+. Stores were depleted with 50 μM tBHQ and calcium influx was stimulated by the addition of 2 mM Ca^2+ alone (Ctrl), or in conbination with: compound with no activity (NM-3A), and compounds that positively (4-(1-(4-(3,5-bis(trifluoromethyl)-1H-pyrazol-1-yl)phenyl)-1H-1,2,3-triazol-4-yl)benzoic acid) and negatively (3-(1-(4-(4-(ethoxycarbonyl)-5-(trifluoromethyl)-1H-pyrazol-1-yl)phenyl)-1H-1,2,3-triazol-4-yl)benzoic acid) regulate SOCE. Calcium responses are expressed as changes in fluorescence intensity before and after the addition of selected modulators. (B) BV-2 cells were assayed for a calcium response to different concentrations of 3-(1-(4-(4-(ethoxycarbonyl)-5-(trifluoromethyl)-1H-pyrazol-1-yl)phenyl)-1H-1,2,3-triazol-4-yl)benzoic acid and 4-(1-(4-(3,5-bis(trifluoromethyl)-1H-pyrazol-1-yl)phenyl)-1H-1,2,3-triazol-4-yl)benzoic acid (0.1-0.3-1-3-10-30-100 μM) using Fluo-4 fluorimetric assay. Concentration-response curves represent the AUC % of both compounds as compared to positive control.
Immortalized primary mouse microglial BV-2 cells were obtained from ATCC (ATCC® CRL-2540™, Rockville, Md., USA) and were cultured in Dulbecco's Modified Eagle's Medium (DMEM; Sigma-Aldrich, Italy), supplemented with 10% heat-inactivated FBS (Gibco, Italy), 1-glutamine 50 mg/mL (Sigma-Aldrich, Italy), penicillin 10 U/mL and streptomycin […] (Sigma-Aldrich, Italy) at 37° C., under a 5% CO2 humidified atmosphere. For experiments, the cells were plated 2×10^4 per ml in 24 well plates) or onto glass coverslips at concentrations of 4×10^4 per mL (24 mm diame-ter coverslips in 6 well plates).
BV-2 cells were loaded with 5 μM Fluo-4 AM in presence of 0.02% of Pluronic-127 (both from Life Technologies, Italy) and 10 μM sulfinpyrazone in Krebs-Ringer buffer (KRB, 135 mM NaCl, 5 mM KCl, 0.4 mM KH2PO4, 1 mM MgSO4, 5.5 mM glucose, 20 mM HEPES, pH 7.4) containing 2 mM CaCl2 (30 min, room temperature). Subsequently, cells were washed and incubated with KRB for other 30 min to allow de-esterification of Fluo-4 AM. Experiments were carried out prior to and during exposure of the cells to the Ca^2+-free solution. In the absence of Ca^2+, the intracellular Ca^2+ stores were depleted by 2,5-t-butylhydroquinone (tBHQ, 50 μM; Sigma-Aldrich, Italy), a SERCA poison, and then calcium 2 mM was re-added to the extracellular solution. Fluorescence is then monitored sequentially for a second in each well for 600 seconds with excitation at 494 nm and an emission wavelength at 516 nm on the V3 Victor plate-reader (Perkin Elmer), generating time-curves for each well. Data were analysed using Microsoft Excel and GraphPad Prism.
The percentage of SOCE inhibition for each compound was determined based on value of tBHQ-induced calcium influx into BV-2 cells (Table 2).

| SMILES | inhibition at 10 µM |
| --- | --- |
| CCOC(=O)c1cnn(-c2ccc(-c3cn(-c4cccnc4)nn3)cc2)c1C(F)(F)F [ethyl 1-(4-(1-(pyridin-3-yl)-1H-1,2,3-triazol-4-yl)phenyl)-5-(trifluoromethyl)-1H-pyrazole-4-carboxylate] | 37.4% |
| CCOC(=O)c1cnn(-c2ccc(-n3cc(-c4ccc(OC)cc4)nn3)cc2)c1C(F)(F)F [ethyl 1-(4-(4-(4-methoxyphenyl)-1H-1,2,3-triazol-1-yl)phenyl)-5-(trifluoromethyl)-1H-pyrazole-4-carboxylate] | 4.77% |
| FC(F)(F)c1cc(C(F)(F)F)n(-c2ccc(-n3cc(-c4ccccc4)nn3)cc2)n1 [1-(4-(3,5-bis(trifluoromethyl)-1H-pyrazol-1-yl)phenyl)-4-phenyl-1H-1,2,3-triazole] | 0.84% |
| CCOC(=O)c1cnn(-c2ccc(-c3cn(-c4ccc(C(=O)O)cc4)nn3)cc2)c1C(F)(F)F [4-(4-(4-(4-(ethoxycarbonyl)-5-(trifluoromethyl)-1H-pyrazol-1-yl)phenyl)-1H-1,2,3-triazol-1-yl)benzoic acid] | 19.8% |
| Oc1cccc(-c2cn(-c3ccc(-n4nc(C(F)(F)F)cc4C(F)(F)F)cc3)nn2)c1 [3-(1-(4-(3,5-bis(trifluoromethyl)-1H-pyrazol-1-yl)phenyl)-1H-1,2,3-triazol-4-yl)phenol] | 4.06% |
| CCOC(=O)c1cnn(-c2ccc(-c3cn(-c4cccc(N)c4)nn3)cc2)c1C(F)(F)F [ethyl 1-(4-(1-(3-aminophenyl)-1H-1,2,3-triazol-4-yl)phenyl)-5-(trifluoromethyl)-1H-pyrazole-4-carboxylate] | 23% |
| CCOC(=O)c1cnn(-c2ccc(-n3cc(-c4cccc(C(N)=O)c4)nn3)cc2)c1C(F)(F)F [ethyl 1-(4-(4-(3-carbamoylphenyl)-1H-1,2,3-triazol-1-yl)phenyl)-5-(trifluoromethyl)-1H-pyrazole-4-carboxylate] | 2.27% |
| CCOC(=O)c1cnn(-c2ccc(-n3cc(-c4ccc(OC)c(OC)c4)nn3)cc2)c1C(F)(F)F [ethyl 1-(4-(4-(3,4-dimethoxyphenyl)-1H-1,2,3-triazol-1-yl)phenyl)-5-(trifluoromethyl)-1H-pyrazole-4-carboxylate] | 17.2% |
| CCOC(=O)c1cnn(-c2ccc(-n3cc(-c4cccc(N)c4)nn3)cc2)c1C(F)(F)F [ethyl 1-(4-(4-(3-aminophenyl)-1H-1,2,3-triazol-1-yl)phenyl)-5-(trifluoromethyl)-1H-pyrazole-4-carboxylate] | 24.8% |
| CCOC(=O)c1cnn(-c2ccc(-n3cc(-c4ccccc4)nn3)cc2)c1C(F)(F)F [ethyl 1-(4-(4-phenyl-1H-1,2,3-triazol-1-yl)phenyl)-5-(trifluoromethyl)-1H-pyrazole-4-carboxylate] | 14.3% |
| O=C(O)CCCc1cn(-c2ccc(-n3nc(C(F)(F)F)cc3C(F)(F)F)cc2)nn1 [4-(1-(4-(3,5-bis(trifluoromethyl)-1H-pyrazol-1-yl)phenyl)-1H-1,2,3-triazol-4-yl)butanoic acid] | 19.9% |
| CCOC(=O)c1cnn(-c2ccc(-n3cc(-c4cccc(C(=O)OC)c4)nn3)cc2)c1C(F)(F)F [ethyl 1-(4-(4-(3-(methoxycarbonyl)phenyl)-1H-1,2,3-triazol-1-yl)phenyl)-5-(trifluoromethyl)-1H-pyrazole-4-carboxylate] | 21.8% |
| CCOC(=O)c1cnn(-c2ccc(-c3cn(-c4ccncc4)nn3)cc2)c1C(F)(F)F [ethyl 1-(4-(1-(pyridin-4-yl)-1H-1,2,3-triazol-4-yl)phenyl)-5-(trifluoromethyl)-1H-pyrazole-4-carboxylate] | 20% |
| COc1ccc(-n2cc(-c3ccc(-n4nc(C(F)(F)F)cc4C(F)(F)F)cc3)nn2)cc1 [4-(4-(3,5-bis(trifluoromethyl)-1H-pyrazol-1-yl)phenyl)-1-(4-methoxyphenyl)-1H-1,2,3-triazole] | 21.3% |
| COc1ccc(-n2cc(-c3ccc(-n4nc(C(F)(F)F)cc4C(F)(F)F)cc3)nn2)cc1OC [4-(4-(3,5-bis(trifluoromethyl)-1H-pyrazol-1-yl)phenyl)-1-(3,4-dimethoxyphenyl)-1H-1,2,3-triazole] | 5.7% |
| CCCC(C)OC(=O)c1cnn(-c2ccc(-n3cc(-c4cccc(C(=O)O)c4)nn3)cc2)c1C(F)(F)F (stereo not shown) [3-(1-(4-(4-((pentan-2-yloxy)carbonyl)-5-(trifluoromethyl)-1H-pyrazol-1-yl)phenyl)-1H-1,2,3-triazol-4-yl)benzoic acid] | 91.9% |
| O=C(O)CCCn1cc(-c2ccc(-n3nc(C(F)(F)F)cc3C(F)(F)F)cc2)nn1 [4-(4-(4-(3,5-bis(trifluoromethyl)-1H-pyrazol-1-yl)phenyl)-1H-1,2,3-triazol-1-yl)butanoic acid] | 18.3% |
| CCOC(=O)c1cnn(-c2ccc(-n3cc(-c4ccccc4NC(C)=O)nn3)cc2)c1C(F)(F)F [ethyl 1-(4-(4-(2-acetamidophenyl)-1H-1,2,3-triazol-1-yl)phenyl)-5-(trifluoromethyl)-1H-pyrazole-4-carboxylate] | 28% |
| CCOC(=O)c1cnn(-c2ccc(-c3cn(-c4ccc(OC)c(OC)c4)nn3)cc2)c1C(F)(F)F [ethyl 1-(4-(1-(3,4-dimethoxyphenyl)-1H-1,2,3-triazol-4-yl)phenyl)-5-(trifluoromethyl)-1H-pyrazole-4-carboxylate] | 12.8% |
| CCOC(=O)c1cnn(-c2ccc(-n3cc(-c4cccc(O)c4)nn3)cc2)c1C(F)(F)F [ethyl 1-(4-(4-(3-hydroxyphenyl)-1H-1,2,3-triazol-1-yl)phenyl)-5-(trifluoromethyl)-1H-pyrazole-4-carboxylate] | 3.53% |
| CCOC(=O)c1cnn(-c2ccc(-c3cn(-c4ccc(OC)cc4)nn3)cc2)c1C(F)(F)F [ethyl 1-(4-(1-(4-methoxyphenyl)-1H-1,2,3-triazol-4-yl)phenyl)-5-(trifluoromethyl)-1H-pyrazole-4-carboxylate] | 16.9% |
| CCOC(=O)c1cnn(-c2ccc(-n3cc(-c4ccc(N)cc4)nn3)cc2)c1C(F)(F)F [ethyl 1-(4-(4-(4-aminophenyl)-1H-1,2,3-triazol-1-yl)phenyl)-5-(trifluoromethyl)-1H-pyrazole-4-carboxylate] | 8.31% |
